From ChEMBL document CHEMBL3045977, “Antidiabetic and antioxidant activity of hydroxycinnamic acids from Calamintha Officinalis Moench” (2012)

Experiments:
Type in all cases: functional
[1] = tested on: Rattus norvegicus; assay: Antidiabetic activity in alloxan-induced diabetic Rattus norvegicus albino Wistar (rat) model assessed as reduction in triglyceride level at 10 mg/kg, po administered for 14 days measured on day 14 (reference value: 210.8 +/- 1.25 mg/dl)
[2] = tested on: Rattus norvegicus; assay: Antidiabetic activity in alloxan-induced diabetic Rattus norvegicus albino Wistar (rat) model assessed as reduction in LDL level at 10 mg/kg, po administered for 14 days measured on day 14 (reference value: 68.2 +/- 2.10 mg/dl)
[3] = tested on: Rattus norvegicus; assay: Antidiabetic activity in alloxan-induced diabetic Rattus norvegicus albino Wistar (rat) model assessed as reduction in total cholesterol level at 10 mg/kg, po administered for 14 days measured on day 1 (reference value: 98.6 +/- 0.51 mg/dl)
[4] = tested on: Rattus norvegicus; assay: Antidiabetic activity in alloxan-induced diabetic Rattus norvegicus albino Wistar (rat) model assessed as TBRAS level per gram of liver tissue at 10 mg/kg, po administered for 14 days measured after 14 days (reference value: 0.72 +/-0.12 uM/g)
[5] = tested on: Rattus norvegicus; assay: Antidiabetic activity in alloxan-induced diabetic Rattus norvegicus albino Wistar (rat) model assessed as reduction in blood glucose level at 10 mg/kg, po administered for 14 days measured on day 14 (reference value: 248.6 +/- 1.20 mg/dl)
[6] = tested on: Rattus norvegicus; assay: Antidiabetic activity in alloxan-induced diabetic Rattus norvegicus albino Wistar (rat) model assessed as reduction in VLDL level at 10 mg/kg, po administered for 14 days measured on day 14 (reference value: 29.9 +/- 0.83 mg/dl)
[7] = tested on: Rattus norvegicus; assay: Antidiabetic activity in alloxan-induced diabetic Rattus norvegicus albino Wistar (rat) model assessed as change in body weight at 10 mg/kg, po administered for 14 days measured on day 14 (reference value: 190.6 +/-1.78 g)
[8] = tested on: Rattus norvegicus; assay: Antidiabetic activity in alloxan-induced diabetic Rattus norvegicus albino Wistar (rat) model assessed as change in body weight at 10 mg/kg, po administered for 14 days measured on day 1 (reference value: 205.4 +/-2.68 g)
[9] = tested on: Rattus norvegicus; assay: Antidiabetic activity in alloxan-induced diabetic Rattus norvegicus albino Wistar (rat) model assessed as reduction in HDL level at 10 mg/kg, po administered for 14 days measured on day 14 (reference value: 36.4 +/- 1.05 mg/dl)
[10] = tested on: Rattus norvegicus; assay: Antidiabetic activity in alloxan-induced diabetic Rattus norvegicus albino Wistar (rat) model assessed as reduction in LDL level at 10 mg/kg, po administered for 14 days measured on day 1 (reference value: 52.4 +/- 2.32 mg/dl)
[11] = tested on: Rattus norvegicus; assay: Antidiabetic activity in alloxan-induced diabetic Rattus norvegicus albino Wistar (rat) model assessed as reduction in blood glucose level at 10 mg/kg, po administered for 14 days measured on day 1 (reference value: 242.2 +/- 0.71 mg/dl)
[12] = tested on: Rattus norvegicus; assay: Antidiabetic activity in alloxan-induced diabetic Rattus norvegicus albino Wistar (rat) model assessed as reduction in VLDL level at 10 mg/kg, po administered for 14 days measured on day 1 (reference value: 14.4 +/- 1.04 mg/dl)
[13] = tested on: Rattus norvegicus; assay: Antidiabetic activity in alloxan-induced diabetic Rattus norvegicus albino Wistar (rat) model assessed as reduction in total cholesterol level at 10 mg/kg, po administered for 14 days measured on day 14 (reference value: 131.2 +/- 0.48 mg/dl)
[14] = tested on: Rattus norvegicus; assay: Antidiabetic activity in alloxan-induced diabetic Rattus norvegicus albino Wistar (rat) model assessed as reduction in HDL level at 10 mg/kg, po administered for 14 days measured on day 1 (reference value: 40.1 +/- 2.11 mg/dl)
[15] = tested on: Rattus norvegicus; assay: Antidiabetic activity in alloxan-induced diabetic Rattus norvegicus albino Wistar (rat) model assessed as reduction in triglyceride level at 10 mg/kg, po administered for 14 days measured on day 1 (reference value: 158.9 +/- 1.23 mg/dl)

Work on `O=C(O)/C=C/c1ccc(O)c(O)c1` [CAFFEIC ACID] yielded an Activity [1] of 103.2 mg/dL, an Activity [2] of 41 mg/dL and an Activity [3] of 101.2 mg/dL. It also gave an Activity [4] of 0.56 µM, an Activity [5] of 105.4 mg/dL and an Activity [6] of 20.9 mg/dL. The Activity [7] was 246 g, the Activity [8] was 209.3 g and the Activity [9] was 41.4 mg/dL. The Activity [10] was 53.7 mg/dL, the Activity [11] was 239 mg/dL and the Activity [12] was 15 mg/dL. It also gave an Activity [13] of 60.6 mg/dL, an Activity [14] of 38.2 mg/dL and an Activity [15] of 160.4 mg/dL.

`COc1ccc(Cl)cc1C(=O)NCCc1ccc(S(=O)(=O)NC(=O)NC2CCCCC2)cc1` [GLYBURIDE] was tested, and the Activity [1] was 102.5 mg/dL, the Activity [2] was 36.4 mg/dL and the Activity [3] was 98.1 mg/dL. The Activity [4] was 0.45 µM, the Activity [5] was 115.1 mg/dL and the Activity [6] was 20.1 mg/dL. For the same compound, the Activity [7] was 250.5 g, the Activity [8] was 207.6 g and the Activity [9] was 45.7 mg/dL. The Activity [10] was 50 mg/dL, the Activity [11] was 240 mg/dL and the Activity [12] was 14 mg/dL. For the same compound, the Activity [13] was 58.6 mg/dL, the Activity [14] was 39.7 mg/dL and the Activity [15] was 161.6 mg/dL.

In the case of `O=C(/C=C/c1ccc(O)c(O)c1)O[C@H](Cc1ccc(O)c(O)c1)C(=O)O` [ROSMARINIC ACID], the Activity [1] was 100.5 mg/dL, the Activity [2] was 42.3 mg/dL and the Activity [3] was 100.1 mg/dL. It also gave an Activity [4] of 0.5 µM, an Activity [5] of 97.3 mg/dL and an Activity [6] of 21.7 mg/dL. It also gave an Activity [7] of 249.5 g, an Activity [8] of 206.8 g and an Activity [9] of 50.2 mg/dL. It also gave an Activity [10] of 51.3 mg/dL, an Activity [11] of 244.1 mg/dL and an Activity [12] of 14.2 mg/dL. The Activity [13] was 57.2 mg/dL, the Activity [14] was 41.2 mg/dL and the Activity [15] was 157.6 mg/dL.
